# According to patent publication US9040557B2, “Composition containing cinchonine as an active ingredient for preventing and treating obesity, dyslipidemia, fatty liver, or insulin resistance syndrome” (YONSEI UNIVERSITY TECHNOLOGY HOLDINGS, INC., priority 2010, dated 2015):
# Marks after values point to notes of the source that are not given here.
# Tests used:
# [1] = system: 3T3-L1 adipocyte precursor cells; assay: Inhibition of adipocyte differentiation, Oil-red O staining; assay type: cell-based, mouse; settings: 0.1, 1, 10, 50 and 100 μM, fourteen-day culture; for differentiation of 3T3-L1 adipocyte precursor cells: FIG. 1a; for content of intracellular fats stained with Oil-red O (O.D. at 600 nm): FIG. 1b
# C57BL/6J mice [2] = assay: Body and visceral fat-pad weights after 10 weeks of test diet; assay type: in vivo; settings: 0.05% cinchonine in high-fat diet
# Experimental: (§1) The obesity-inducing control diet used in the test was high-fat diet (HFD: 40% fat calorie, 17 g lard+3% corn oil/100 g diet). […] The normal diet (ND) was prepared according to the AIN-76 rodent diet composition (American Institute of Nutrition, Report of the American Institute of Nutrition ad hoc committee on standards for nutritional studies. J. Nutr., 107: 1340-1348, (1977)) (FIG. 1). (+)-Cinchonine was purchased from Sigma-Aldrich. 5-week-old male C57BL/6J mice (Orient, Korea) were accustomed to the laboratory environment for 1 week while feeding solid feed. Then, they were randomly divided into a high-fat diet group and a test group according to randomized block design and bred for a total of 10 weeks. The diet was given between 10 and 11 A.M. every day together with water. Food intake was measured every day and body weight was measured once a week. In order to avoid transient body weight increase after feed intake, body weight was measured 2 hr after removing the feed. […] Blood taken from the abdominal aorta was centrifuged at 1000×g for 15 minutes for the separation of plasma.
# C57BL/6J mice [3] = assay: Biochemical analysis of plasma after 10 weeks of test diet; assay type: in vivo
# Experimental: as §1, with “plasma. […] Total cholesterol, triglyceride, free fatty acid and glucose levels in the plasma were measured twice for each using a commercially available kit (Bio Clinical System). The level of LDL+VLDL in plasma was calculated by subtracting HDL level from the total cholesterol level. The activities of ALT (alanine aminotransferase) and AST (aspartate aminotransferase) used as liver function indicator were measured using a commercially available kit (Bio Clinical System, Korea).” for “plasma.”
# C57BL/6J mice [4] = assay: Liver weight and lipid levels in liver tissue after 10 weeks of test diet; assay type: in vivo
# Experimental: as §1, with “plasma. Lipids were extracted from the liver tissue according to Folch et al.'s method Folch J et al., J Biol Chem, 226: 497-509 (1957)). […] After adding 5 mL of chloroform:methanol solution (2:1, v/v) to the homogenate and mixing well, the mixture was centrifuged at 1000×g for 10 minutes. […] After adding 3 mL of chloroform:methanol:0.05% CaCl2 (3:48:47, v/v/v) solution to the remaining pellets and mixing well for 1 minute, followed by centrifugation at 1000×g for 10 minutes, the resulting pellets were completely dried with nitrogen gas. The dried lipids were dissolved in 1 mL of methanol and then analyzed. The commercially available kits (Bio Clinical System, Korea) were used to measure the levels of triglyceride, cholesterol and free fatty acids of the liver tissue.” for “plasma.”
# PPARγ2 = assay: RT-PCR of epididymal fat tissues: PPARγ2; assay type: in vivo, mice; settings: CSID vs HFD, FIG. 4
# Experimental: (§2) After adding 1 mL of Trizol agent (Invitrogen, USA) per 0.1 g of epididymal fat tissues, the mixture was homogenized and centrifuged at 12,000×g for 10 min at 4° C. The supernatant was transferred to a new tube and 200 μl of chloroform was added to the tube, followed by vortexing. The same procedure was repeated twice and then the supernatant was transferred to a new tube, followed by addition of isopropanol and the supernatant at 1:1 ratio. The mixture was vigorously shaken 10 times and then incubated for 10 min at room temperature, followed by centrifugation at 12,000×g for 10 min at 4° C. to remove the supernatant. After adding 1 mL of 70% ethanol to the remaining pellet, it was centrifuged at 7,500×g for 5 min at 4° C. After removing the ethanol, the RNA pellet contained in the tube was dried for 5 min at 4° C. and dissolved in nuclease-free water. The RNA concentration of sample was measured at a wavelength of 260 nm and 280 nm using a UV/VIS spectrophotometer (Beckman coulter, DU730) and the integrity of RNA sample was verified by agarose gel electrophoresis. The RNA sample obtained from the epididymal fat tissues was transcribed using oligo dT primer and SuperScript reverse transcriptase (GIBCO BRL, Gaithersburg, Md., USA) to synthesize cDNA. The PCR amplification was performed using the cDNA as templates and primers complementary to cDNA [NT] flanking sequence. […]
# C/EBPα = assay: RT-PCR of epididymal fat tissues: C/EBPα; assay type: in vivo, mice; settings: CSID vs HFD, FIG. 4
# aP2 = assay: RT-PCR of epididymal fat tissues: aP2; assay type: in vivo, mice; settings: CSID vs HFD, FIG. 4
# Experimental: as §2
# TNF-α = assay: RT-PCR of visceral fat tissues: TNF-α; assay type: in vivo, mice; settings: FIG. 5
# Experimental: as §2
# IL-6 = assay: RT-PCR of visceral fat tissues: IL-6; assay type: in vivo, mice; settings: FIG. 5
# Experimental: as §2
# UCP1 = assay: RT-PCR of visceral fat tissues: UCP1; assay type: in vivo, mice; settings: FIG. 6
# Experimental: as §2
# UCP3 = assay: RT-PCR of visceral fat tissues: UCP3; assay type: in vivo, mice; settings: FIG. 6
# Experimental: as §2
# [5] = system: P388 multidrug-resistant cells; settings: cited from earlier work
# Plasmodium falciparum = settings: cited from earlier work
# human platelets = settings: cited from earlier work
# [6] = system: adrenorceptor and Ca^2+ channels; settings: cited from earlier work
# P-glycoprotein = P-glycoprotein (Homo sapiens, UniProt P08183); settings: cited from earlier work
# [7] = 0.05% cinchonine in high-fat diet, 10 weeks
# [8] = 0.05% cinchonine in high-fat diet
# P-glycoprotein, sequence (P08183 whole entry): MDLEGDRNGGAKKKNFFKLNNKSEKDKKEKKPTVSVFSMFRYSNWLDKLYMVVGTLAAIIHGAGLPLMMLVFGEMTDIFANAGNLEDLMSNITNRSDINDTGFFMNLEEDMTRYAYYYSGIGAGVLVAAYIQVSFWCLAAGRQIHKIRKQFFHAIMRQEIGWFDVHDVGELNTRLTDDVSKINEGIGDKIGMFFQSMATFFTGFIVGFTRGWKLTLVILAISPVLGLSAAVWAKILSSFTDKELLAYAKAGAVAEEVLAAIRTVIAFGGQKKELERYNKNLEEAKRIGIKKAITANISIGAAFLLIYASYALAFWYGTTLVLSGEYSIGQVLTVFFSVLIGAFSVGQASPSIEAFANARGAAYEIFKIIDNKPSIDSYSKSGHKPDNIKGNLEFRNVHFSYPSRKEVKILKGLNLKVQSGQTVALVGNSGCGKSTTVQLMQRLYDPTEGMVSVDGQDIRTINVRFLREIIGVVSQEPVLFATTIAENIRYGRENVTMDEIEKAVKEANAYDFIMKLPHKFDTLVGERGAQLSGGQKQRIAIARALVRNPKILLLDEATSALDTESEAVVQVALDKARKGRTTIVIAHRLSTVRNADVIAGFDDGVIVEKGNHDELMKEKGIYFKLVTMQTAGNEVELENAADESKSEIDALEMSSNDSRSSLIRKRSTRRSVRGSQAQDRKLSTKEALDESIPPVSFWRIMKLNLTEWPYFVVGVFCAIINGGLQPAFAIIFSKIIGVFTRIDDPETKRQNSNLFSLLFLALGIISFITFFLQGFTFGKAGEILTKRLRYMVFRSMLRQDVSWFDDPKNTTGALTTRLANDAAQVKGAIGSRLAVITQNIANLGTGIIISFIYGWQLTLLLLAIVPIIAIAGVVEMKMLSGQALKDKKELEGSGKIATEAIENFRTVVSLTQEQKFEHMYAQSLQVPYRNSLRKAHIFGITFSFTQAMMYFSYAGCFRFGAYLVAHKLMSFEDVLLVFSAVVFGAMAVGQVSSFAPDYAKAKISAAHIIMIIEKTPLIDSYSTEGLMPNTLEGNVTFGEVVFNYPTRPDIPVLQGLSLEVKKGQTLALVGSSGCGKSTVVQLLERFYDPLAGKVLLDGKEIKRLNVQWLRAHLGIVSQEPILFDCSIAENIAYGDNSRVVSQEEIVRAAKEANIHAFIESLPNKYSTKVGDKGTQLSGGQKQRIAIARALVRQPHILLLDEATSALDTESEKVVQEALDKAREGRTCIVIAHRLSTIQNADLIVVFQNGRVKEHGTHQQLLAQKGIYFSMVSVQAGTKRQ
smiles,measurement,setting,value
"C=C[C@H]1C[N@@]2CC[C@H]1C[C@@H]2[C@@H](O)c1ccnc2ccccc12 [cinchonine, Cinchonine]",differentiation of 3T3-L1 adipocyte precursor cells,[1],significantly decreases differentiation
same,differentiation of 3T3-L1 adipocyte precursor cells,[1]; listed as (+)-cinchonine,decreased differentiation
same,content of intracellular fats stained with Oil-red O (O.D. at 600 nm),[1],decreased in a dose-dependent manner
same,content of intracellular fats stained with Oil-red O (O.D. at 600 nm),[1]; listed as (+)-cinchonine,decreased
same,decrease in cumulative body weight gain as compared to HFD,C57BL/6J mice [2],39%
same,decrease in final body weight as compared to HFD,C57BL/6J mice [2],20%
same,reduction of epididymal fat-pad weight as compared to HFD,C57BL/6J mice [2],19%
same,reduction of mesenteric fat-pad weight as compared to HFD,C57BL/6J mice [2],43%
same,reduction of perirenal fat-pad weight as compared to HFD,C57BL/6J mice [2],45%
same,reduction of retroperitoneal fat-pad weight as compared to HFD,C57BL/6J mice [2],15%
same,reduction of total visceral fat weight as compared to HFD,C57BL/6J mice [2]; p<0.001,26%
same,decrease of plasma ALT activity as compared to HFD,C57BL/6J mice [3]; [7],58%
same,decrease of plasma AST activity as compared to HFD,C57BL/6J mice [3]; [7],46%
same,lower plasma LDL+VLDL level as compared to HFD,C57BL/6J mice [3]; [7],33%
same,lower plasma free fatty acid level as compared to HFD,C57BL/6J mice [3]; [7],21%
same,lower plasma total cholesterol level as compared to HFD,C57BL/6J mice [3]; [7],30%
same,lower plasma triglyceride level as compared to HFD,C57BL/6J mice [3]; [7],24%
same,reduction of fasting blood sugar level as compared to HFD,C57BL/6J mice [3]; [7],27%
same,lower plasma HDL cholesterol level as compared to HFD,C57BL/6J mice [3]; group fed with the present composition vs high fat diet group,25%
same,ALT,"C57BL/6J mice [3]; plasma, CSID group, 10 weeks",5.94 ± 0.78^c IU/L
same,AST,"C57BL/6J mice [3]; plasma, CSID group, 10 weeks",6.03 ± 0.28^b IU/L
same,Free fatty acid,"C57BL/6J mice [3]; plasma, CSID group, 10 weeks",685 ± 65.6^b uEq/L
same,HDL cholesterol,"C57BL/6J mice [3]; plasma, CSID group, 10 weeks",0.89 ± 0.04^b mmol/L
same,Total cholesterol,"C57BL/6J mice [3]; plasma, CSID group, 10 weeks",4.57 ± 0.26^b mmol/L
same,Triglyceride,"C57BL/6J mice [3]; plasma, CSID group, 10 weeks",0.68 ± 0.05^b mmol/L
same,LDL + VLDL cholesterol,"C57BL/6J mice [3]; plasma, CSID group, 10 weeks, total cholesterol minus HDL",3.68 ± 0.27^b mmol/L
same,Glucose,"C57BL/6J mice [3]; plasma, fasting, CSID group, 10 weeks",6.51 ± 0.62^b mmol/L
same,decrease of cholesterol level in liver tissue as compared to HFD,C57BL/6J mice [4]; [8],16%
same,decrease of free fatty acid level in liver tissue as compared to HFD,C57BL/6J mice [4]; [8],23%
same,decrease of triglyceride level in liver tissue as compared to HFD,C57BL/6J mice [4]; [8],16%
same,reduction of absolute weight of liver as compared to HFD,C57BL/6J mice [4]; [8],36%
same,reduction of ratio of liver weight to body weight as compared to HFD,C57BL/6J mice [4]; [8],25%
same,Liver weight,C57BL/6J mice [4]; CSID group,1.4 ± 0.14^b g
same,Liver weight (g/100 g body wt),C57BL/6J mice [4]; CSID group,4.0 ± 0.12^b g/100 g body wt
same,Cholesterol,"C57BL/6J mice [4]; liver tissue, CSID group",109.9 ± 2.37^b μmol/g
same,Free fatty acid,"C57BL/6J mice [4]; liver tissue, CSID group",38.6 ± 3.52^b μEq/g
same,Triglyceride,"C57BL/6J mice [4]; liver tissue, CSID group",59.7 ± 2.26^b μmol/g
same,PPARγ2 gene expression (mRNA),PPARγ2,significantly reduced expressions
same,C/EBPα gene expression (mRNA),C/EBPα,significantly reduced expressions
same,aP2 gene expression (mRNA),aP2,significantly reduced expressions
same,HFD-induced elevation in expression of TNF-α,TNF-α,significantly reversed
same,HFD-induced elevation in expression of IL-6,IL-6,significantly reversed
same,HFD-induced decrease in expression of UCP1,UCP1,significantly reversed
same,HFD-induced decrease in expression of UCP3,UCP3,significantly reversed
same,apoptosis by suppressing transportation of drugs from P388 multidrug-resistant cells,[5],induce apoptosis
same,in vitro anti-malaria effects,Plasmodium falciparum,in vitro anti-malaria effects
same,"platelet aggregation, blocking Ca^2+ influx into human platelets",human platelets,inhibits platelet aggregation
same,antihypertensive effects by blocking adrenorceptor and Ca^2+ channels,[6],antihypertensive effects
same,multi-drug resistance of cancer cells through P-glycoprotein binding,P-glycoprotein,improve multi-drug resistance
